Experiment [1] deals with NSR U14C mutant (C14+) (RNA, riboswitch, C14 protonated at N3 in the folded complex (transcribed as ordinary C)) GGCUGCUUGUCCUCUAAUGGUCCAGUC
Description: 1H NMR imino spectra. The settings on record: no added monovalent ions; complex also in K+ buffers; 50 mM BisTris pH 6.3, 10 °C; ligand in slight excess.

The subject of experiment [2] is neomycin sensing riboswitch (NSR), wild-type (U14) (RNA, riboswitch) GGCUGCUUGUCCUUUAAUGGUCCAGUC
Kind of experiment: 1H NMR imino spectra. The following applies: no added monovalent ions; complex also in K+ buffers; 50 mM BisTris pH 6.3, 10 °C; ligand in slight excess; U10, U21 signals remain at 40 °C.

Consider `NC[C@H]1O[C@H](O[C@H]2[C@H](O[C@@H]3O[C@H](CO)[C@@H](O)[C@H]3O)[C@@H](O)[C@H](N)C[C@@H]2N)[C@H](N)[C@@H](O)[C@@H]1O`, for which the binding result in experiment [1] and in experiment [2] was “yes” throughout.

The values are drawn from PMC6061696 (2018).
